For one test, the target named is T1, FraB (Salmonella enterica, UniProt Q8ZLD0).
T1 construct: gene STM3601; 325-aa construct, N-terminal His6-tag
As to the kind of experiment: G6PDH-coupled deglycase assay, Michaelis-Menten analysis; binding confirmed by native MS. It is filed as biochemical.

Another test concerns the target T2, FrlB (Salmonella enterica, UniProt Q8ZJX7).
T2 construct: gene STM4540; recombinant FrlB, His6 tag removed
T2 sequence (Q8ZJX7 1-343): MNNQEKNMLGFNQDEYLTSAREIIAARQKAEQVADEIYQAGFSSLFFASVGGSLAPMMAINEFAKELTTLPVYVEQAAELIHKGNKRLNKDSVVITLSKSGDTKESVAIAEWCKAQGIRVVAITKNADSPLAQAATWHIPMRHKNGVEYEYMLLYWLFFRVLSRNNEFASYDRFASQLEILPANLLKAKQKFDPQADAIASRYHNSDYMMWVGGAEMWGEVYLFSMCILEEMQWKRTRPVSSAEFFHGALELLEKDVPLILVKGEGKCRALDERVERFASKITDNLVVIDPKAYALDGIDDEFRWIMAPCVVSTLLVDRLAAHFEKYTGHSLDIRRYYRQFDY
In words: native mass spectrometry (dimer with one or two ligands); about […] inhibition at […] in coupled assay. It is filed as binding.

Test [1] has as its target FraB, a Salmonella deglycase (Salmonella). In words: native MS; 3 uM FraB or FrlB mixed with 150, 300 or 450 uM 2-deoxy-6-P-GA; 200 mM ammonium acetate (pH adjusted to 7.4 for FraB); mixed at 25 °C, incubated 30 min at room temperature; nano-ESI, Q Exactive UHMR Orbitrap.
Test [2] addresses FrlB deglycase (Salmonella) (Salmonella). Described as above.

With `O=C(O)C[C@@H](O)[C@H](O)[C@H](O)COP(=O)(O)O` [2-deoxy-6-P-GA, 2-deoxy-6-phosphogluconate], on FraB, the affinity corresponds to a Ki of 3.3 µM. The “native mass spectrometry (dimer with one or two ligands); about 50% inhibition a” value on FrlB was “These results confirm the direct interaction of 2-deoxy-6-P-GA to FraB and FrlB”.

Consider FraB, a Salmonella deglycase (enzyme), for which the stoichiometry N (in general, a count of units in the complex or per binding partner) in test [1] is 2.

With FrlB deglycase (Salmonella) (enzyme), in test [2], the stoichiometry N worked out at 2.

Values taken from paper PMC9609667, “Serendipitous Discovery of a Competitive Inhibitor of FraB, a Salmonella Deglycase and Drug Target” (Pathogens, 2022).
